From patent US10793563B2, “GCN2 inhibitors and uses thereof” (Merck Patent GmbH, priority 2018, dated 2020)

Legend:
[1] = target: intracellular GCN2 (phosphorylation of the GCN2 substrate eIF2α) (Homo sapiens (Human), UniProt Q9P2K8); experiment: GCN2 Cellular Inhibition Assay (AlphaScreen SureFire P-eIF2α Ser51, borrelidin-treated U2OS cells); format: cell-based; settings: 10 μM borrelidin, 1 h, phosphorylated eIF2α Ser51, read-out: GCN2 Biomarker (IC50)
In short: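 U2OS cells adhered overnight, then given compound (top 40 μM, 4-fold serial dilutions) plus 10 μM borrelidin for 1 h at 37 °C. Lysates assayed for eIF2α phospho-Ser51 by AlphaScreen SureFire; % inhibition versus borrelidin-only wells.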

[2] = target: GCN2 kinase (Homo sapiens (Human), UniProt Q9P2K8); experiment: GCN2 Enzyme Inhibition Assay (Transcreener ADP2 fluorescence polarization); format: biochemical; settings: 280 μM ATP, 200 μM (RS)7 peptide, 4 nM GCN2, 25° C.; for Ki: Ki(app)
In short: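 Transcreener ADP2 fluorescence polarization detection of ADP from 4 nM GCN2 with (RS)7 substrate in 25 mM Tris-HCl pH 7.5, 50 mM NaCl, 10 mM MgCl2, 1 mM DTT. Compound pre-incubated with enzyme 10 min at 25 °C; reaction started by ATP, run 1 h at 25 °C. IC50 and Ki(app) by tight-binding fit.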

Chain of GCN2 kinase (Q9P2K8 whole entry): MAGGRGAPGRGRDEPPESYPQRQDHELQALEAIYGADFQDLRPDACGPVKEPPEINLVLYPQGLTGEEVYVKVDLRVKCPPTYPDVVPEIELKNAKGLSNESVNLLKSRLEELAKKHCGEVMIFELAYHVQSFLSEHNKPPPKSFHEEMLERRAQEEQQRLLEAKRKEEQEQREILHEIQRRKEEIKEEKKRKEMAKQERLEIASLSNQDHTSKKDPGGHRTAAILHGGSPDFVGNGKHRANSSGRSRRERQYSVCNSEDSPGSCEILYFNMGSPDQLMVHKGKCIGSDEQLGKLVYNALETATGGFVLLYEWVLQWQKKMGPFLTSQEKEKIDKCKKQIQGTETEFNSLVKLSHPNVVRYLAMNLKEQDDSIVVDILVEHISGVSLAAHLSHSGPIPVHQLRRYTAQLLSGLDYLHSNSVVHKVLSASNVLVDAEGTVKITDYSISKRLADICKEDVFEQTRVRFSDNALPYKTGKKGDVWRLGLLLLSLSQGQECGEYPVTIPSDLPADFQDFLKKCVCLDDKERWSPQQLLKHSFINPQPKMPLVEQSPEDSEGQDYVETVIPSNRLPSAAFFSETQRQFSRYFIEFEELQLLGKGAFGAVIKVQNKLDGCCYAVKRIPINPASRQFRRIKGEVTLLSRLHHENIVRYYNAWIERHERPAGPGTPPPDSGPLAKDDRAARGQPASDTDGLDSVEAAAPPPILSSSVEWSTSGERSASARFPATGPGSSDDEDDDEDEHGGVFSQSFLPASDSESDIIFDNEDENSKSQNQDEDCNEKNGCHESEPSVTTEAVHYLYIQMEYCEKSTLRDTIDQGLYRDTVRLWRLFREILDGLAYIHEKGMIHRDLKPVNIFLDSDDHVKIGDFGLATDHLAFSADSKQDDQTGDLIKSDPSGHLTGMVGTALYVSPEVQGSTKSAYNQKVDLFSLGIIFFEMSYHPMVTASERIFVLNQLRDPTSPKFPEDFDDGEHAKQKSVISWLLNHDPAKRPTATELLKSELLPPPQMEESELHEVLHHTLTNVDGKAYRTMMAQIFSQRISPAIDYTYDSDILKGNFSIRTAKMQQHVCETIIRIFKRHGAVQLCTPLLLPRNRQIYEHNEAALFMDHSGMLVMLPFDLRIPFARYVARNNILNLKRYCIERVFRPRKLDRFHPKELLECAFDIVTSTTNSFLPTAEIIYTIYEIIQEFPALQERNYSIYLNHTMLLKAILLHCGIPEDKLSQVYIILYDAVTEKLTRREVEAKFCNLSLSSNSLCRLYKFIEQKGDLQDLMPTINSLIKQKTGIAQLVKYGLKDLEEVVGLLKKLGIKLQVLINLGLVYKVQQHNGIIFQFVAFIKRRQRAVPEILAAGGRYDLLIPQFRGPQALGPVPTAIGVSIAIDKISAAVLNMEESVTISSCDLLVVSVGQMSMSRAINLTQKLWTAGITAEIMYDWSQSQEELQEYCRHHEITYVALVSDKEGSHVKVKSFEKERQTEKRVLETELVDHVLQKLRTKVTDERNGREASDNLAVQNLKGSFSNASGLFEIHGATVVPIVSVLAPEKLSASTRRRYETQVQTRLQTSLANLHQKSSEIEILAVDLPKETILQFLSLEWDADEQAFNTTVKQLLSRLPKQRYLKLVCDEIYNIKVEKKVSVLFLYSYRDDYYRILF
Chain of intracellular GCN2 (phosphorylation of the GCN2 substrate eIF2α) (Q9P2K8 whole entry): as above

SMILES	IC50 [1]	IC50 [2]	Ki [2]
Cc1cc(-c2cnc3ccc(Cl)cn23)nc(N2C[C@@H](C)O[C@H](c3cn[nH]c3C)C2)n1 [I-218, (2R,6R)-4-(4-(6-chloroimidazo[1,2-a]pyridin-3-yl)-6-methylpyrimidin-2-yl)-2-methyl-6-(5-methyl-1H-pyrazol-4-yl)morpholine]	500 to 5000 nM	10 to 100 nM	–
O=C1NC[C@@]12CCCN(c1ccnc(-c3cnc4ccc(C(F)(F)F)cn34)n1)C2 [I-295, (R)-6-(2-(6-(trifluoromethyl)imidazo[1,2-a]pyridin-3-yl)pyrimidin-4-yl)-2,6-diazaspiro[3.5]nonan-1-one]	500 to 5000 nM	10 to 100 nM	–
Cc1cnc(N2C[C@@H](C)O[C@@H](c3cn[nH]c3C)C2)nc1-c1cnc2ccc(Cl)cn12 [I-204, (2R,6S)-4-(4-(6-chloroimidazo[1,2-a]pyridin-3-yl)-5-methylpyrimidin-2-yl)-2-methyl-6-(5-methyl-1H-pyrazol-4-yl)morpholine]	500 to 5000 nM	10 to 100 nM	–
O[C@@H]1C[C@H](O)CN(c2ccnc(-c3cnc4ccc(C(F)(F)F)cn34)n2)C1 [I-238, (3R,5S)-1-(2-(6-(trifluoromethyl)imidazo[1,2-a]pyridin-3-yl)pyrimidin-4-yl)piperidine-3,5-diol]	500 to 5000 nM	10 to 100 nM	–
Cc1[nH]ncc1[C@H]1C[C@H](N=S(C)(C)=O)CN(c2ccnc(-c3cnc4ccc(C(F)(F)F)cn34)n2)C1 [I-344, dimethyl(((3 S,5R)-5-(5-methyl-1H-pyrazol-4-yl)-1-(2-(6-(trifluoromethyl)imidazo[1,2-a]pyridin-3-yl)pyrimidin-4-yl)piperidin-3-yl)imino)-λ6-sulfanone]	500 to 5000 nM	100 to 1000 nM	–
C[C@@H]1CN(c2ccnc(-c3cnc4ccc(C(F)(F)F)cn34)n2)C[C@H](C)N1C(=O)CC1COC1 [I-501, 1-(cis-2,6-dimethyl-4-(2-(6-(trifluoromethyl)imidazo[1,2-a]pyridin-3-yl)pyrimidin-4-yl)piperazin-1-yl)-2-(oxetan-3-yl)ethan-1-one]	500 to 5000 nM	100 to 1000 nM	–
Cn1cnc(C(=O)N2CCN(c3ccnc(-c4cnc5ccc(C(F)(F)F)cn45)n3)CC2c2cn[nH]c2)c1 (stereo not drawn) [I-446, (2-(1H-pyrazol-4-yl)-4-(2-(6-(trifluoromethyl)imidazo[1,2-a]pyridin-3-yl)pyrimidin-4-yl)piperazin-1-yl)(1-methyl-1H-imidazol-4-yl)methanone]	500 to 5000 nM	10 to 100 nM	–
FC(F)(F)c1ccc2ncc(-c3ccnc(N4CCN(C[C@@H]5CCCOC5)[C@H](c5cn[nH]c5)C4)n3)n2c1 [I-544, 3-(2-((R)-3-(1H-pyrazol-4-yl)-4-(((S)-tetrahydro-2H-pyran-3-yl)methyl)piperazin-1-yl)pyrimidin-4-yl)-6-(trifluoromethyl)imidazo[1,2-a]pyridine]	< 500 nM	< 10 nM	–
CS(=O)(=O)NC[C@@H]1CN(c2nc(-c3cnc4ccc(C(F)(F)F)cn34)ns2)CCO1 [I-106, (S)—N-((4-(3-(6-(trifluoromethyl)imidazo[1,2-a]pyridin-3-yl)-1,2,4-thiadiazol-5-yl)morpholin-2-yl)methyl)methanesulfonamide]	> 5000 nM	–	10 to 100 nM
O=C(c1cnon1)N1CCN(c2ccnc(-c3cnc4ccc(C(F)(F)F)cn34)n2)CC1c1cn[nH]c1 (stereo not drawn) [I-441, (2-(1H-pyrazol-4-yl)-4-(2-(6-(trifluoromethyl)imidazo[1,2-a]pyridin-3-yl)pyrimidin-4-yl)piperazin-1-yl)(1,2,5-oxadiazol-3-yl)methanone]	> 5000 nM	10 to 100 nM	–
Cc1oncc1[C@H]1CN(c2ccnc(-c3cnc4ccc(C(F)(F)F)cn34)n2)C[C@H](C)O1 [I-345, (2S,6S)-2-methyl-6-(5-methylisoxazol-4-yl)-4-(2-(6-(trifluoromethyl)imidazo[1,2-a]pyridin-3-yl)pyrimidin-4-yl)morpholine]	500 to 5000 nM	100 to 1000 nM	–
C[C@H]1CN(c2ccnc(-c3cnc4ccc(C(F)(F)F)cn34)n2)[C@@H](C)[C@@H](c2cn[nH]c2)N1 (stereo in doubt) [I-37, 3-[4-[2,5-Dimethyl-3-(1H-pyrazol-4-yl)piperazin-1-yl]pyrimidin-2-yl]-6-(trifluoromethyl)imidazo[1,2-a]pyridine]	< 500 nM	–	< 10 nM
CC1CN(c2ccnc(-c3cnc4ccc(Cl)cn34)n2)C(C)C(c2cn[nH]c2)N1 (stereo not drawn) [I-36, 6-chloro-3-[4-[2,5-dimethyl-3-(1H-pyrazol-4-yl)piperazin-1-yl]pyrimidin-2-yl]imidazo[1,2-a]pyridine]	< 500 nM	–	< 10 nM
C[C@@H]1[C@@H](c2cn[nH]c2)NCCN1c1ccnc(-c2cnc3ccc(C(F)(F)F)cn23)n1 [I-536, 3-(4-((2R,3R)-2-methyl-3-(1H-pyrazol-4-yl)piperazin-1-yl)pyrimidin-2-yl)-6-(trifluoromethyl)imidazo[1,2-a]pyridine]	500 to 5000 nM	100 to 1000 nM	–
Clc1ccc2ncc(-c3nccc(N4CCCC(c5ccon5)C4)n3)n2c1 (stereo not drawn) [I-66, 6-Chloro-3-[4-(3-isoxazol-3-yl-piperidin-1-yl)-pyrimidin-2-yl]-imidazo[1,2-a]pyridine]	500 to 5000 nM	–	10 to 100 nM
Cc1cc(-c2cnc3ccc(Cl)cn23)nc(N2C[C@@H](C)C[C@@H](c3cn[nH]c3)C2)n1 [I-208, 6-chloro-3-(6-methyl-2-((3S,5S)-3-methyl-5-(1H-pyrazol-4-yl)piperidin-1-yl)pyrimidin-4-yl)imidazo[1,2-a]pyridine]	< 500 nM	10 to 100 nM	–
Cc1noc([C@H]2CN(c3ccnc(-c4cnc5ccc(C#N)cn45)n3)C[C@@H](C)O2)n1 [I-92, 3-{4-[(2R,6R)-2-methyl-6-(3-methyl-1,2,4-oxadiazol-5-yl)morpholin-4-yl]pyrimidin-2-yl}imidazo[1,2-a]pyridine-6-carbonitrile]	500 to 5000 nM	–	< 10 nM
FC(F)(F)c1ccc2ncc(-c3nccc(N4CCN(Cc5cnon5)C(c5cn[nH]c5)C4)n3)n2c1 (stereo not drawn) [I-461, 4-{4-[(1,2,5-oxadiazol-3-yl)methyl]-3-(1H-pyrazol-4-yl)piperazin-1-yl}-2-[6-(trifluoromethyl)imidazo[1,2-a]pyridin-3-yl]pyrimidine]	< 500 nM	< 10 nM	–
CC(C)(C)OC(=O)N1CC2(C1)OCCN(c1ccnc(-c3cnc4ccc(C(F)(F)F)cn34)n1)C2(C)C [I-388, tert-butyl 9,9-dimethyl-8-(2-(6-(trifluoromethyl)imidazo[1,2-a]pyridin-3-yl)pyrimidin-4-yl)-5-oxa-2,8-diazaspiro[3.5]nonane-2-carboxylate]	> 5000 nM	100 to 1000 nM	–
FC(F)(F)c1ccc2ncc(-c3nccc(N4CCN(C[C@H]5CC56CCOCC6)[C@@H](c5cn[nH]c5)C4)n3)n2c1 [I-521, 3-(4-((S)-4-(((S)-6-oxaspiro[2.5]octan-1-yl)methyl)-3-(1H-pyrazol-4-yl)piperazin-1-yl)pyrimidin-2-yl)-6-(trifluoromethyl)imidazo[1,2-a]pyridine]	< 500 nM	< 10 nM	–
C[C@H](NS(C)(=O)=O)[C@@H]1CN(c2ccnc(-c3cnc4ccc(C(F)(F)F)cn34)n2)CCO1 [I-407, N—((S)-1-((S)-4-(2-(6-(trifluoromethyl)imidazo[1,2-a]pyridin-3-yl)pyrimidin-4-yl)morpholin-2-yl)ethyl)methanesulfonamide]	500 to 5000 nM	10 to 100 nM	–
